Here are results for three compounds from ChEMBL document CHEMBL1201862, “PubChem BioAssay data set” (2004).

For orientation: AC50 means the concentration giving half of the maximal activity seen. What is called EC50 is the concentration needed to bring the measured effect to its halfway point. Broadly, the CC50 is the concentration that lowers cell viability or growth by half. What is called IC50 is the point on the concentration scale where inhibition reaches its midpoint.

Activity calls are given as the source filed them. Some results are limits rather than exact numbers.

The nature of assay [1]: HEK293 cell cytotoxicity, dose response, cytotoxicity control, plate reader, cherry-picked samples (AID 743446). It is filed as functional, cell-based.
The nature of assay [2]: MC4R antagonists, dose response, counter-screen for LGR2 antagonist project, cell-based, plate reader, cherry pick (AID 743444).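 Further: transfected HEK 293 cells stimulated with alpha-MSH peptide; potency of inhibitors of the alpha-MSH evoked signal.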 The format is functional. In general terms: Counterscreens check selectivity or assay interference.
Assay [3] can be described thus: A549 cell cytotoxicity, dose response, cytotoxicity control, plate reader, cherry-pick, antagonist series (AID 743412). The format is functional, cell-based.
A further assay has as its target Kallikrein-7 (Homo sapiens, UniProt P49862). Briefly: Fluorescence Intensity-based biochemical primary high throughput dose response assay to identify activators of kallikrein-7 (K7) zymogen.
Assay [4] has as its target T1, Replicative DNA helicase DnaB (Mycobacterium tuberculosis, UniProt P9WMR3).
T1 sequence (P9WMR3 whole entry): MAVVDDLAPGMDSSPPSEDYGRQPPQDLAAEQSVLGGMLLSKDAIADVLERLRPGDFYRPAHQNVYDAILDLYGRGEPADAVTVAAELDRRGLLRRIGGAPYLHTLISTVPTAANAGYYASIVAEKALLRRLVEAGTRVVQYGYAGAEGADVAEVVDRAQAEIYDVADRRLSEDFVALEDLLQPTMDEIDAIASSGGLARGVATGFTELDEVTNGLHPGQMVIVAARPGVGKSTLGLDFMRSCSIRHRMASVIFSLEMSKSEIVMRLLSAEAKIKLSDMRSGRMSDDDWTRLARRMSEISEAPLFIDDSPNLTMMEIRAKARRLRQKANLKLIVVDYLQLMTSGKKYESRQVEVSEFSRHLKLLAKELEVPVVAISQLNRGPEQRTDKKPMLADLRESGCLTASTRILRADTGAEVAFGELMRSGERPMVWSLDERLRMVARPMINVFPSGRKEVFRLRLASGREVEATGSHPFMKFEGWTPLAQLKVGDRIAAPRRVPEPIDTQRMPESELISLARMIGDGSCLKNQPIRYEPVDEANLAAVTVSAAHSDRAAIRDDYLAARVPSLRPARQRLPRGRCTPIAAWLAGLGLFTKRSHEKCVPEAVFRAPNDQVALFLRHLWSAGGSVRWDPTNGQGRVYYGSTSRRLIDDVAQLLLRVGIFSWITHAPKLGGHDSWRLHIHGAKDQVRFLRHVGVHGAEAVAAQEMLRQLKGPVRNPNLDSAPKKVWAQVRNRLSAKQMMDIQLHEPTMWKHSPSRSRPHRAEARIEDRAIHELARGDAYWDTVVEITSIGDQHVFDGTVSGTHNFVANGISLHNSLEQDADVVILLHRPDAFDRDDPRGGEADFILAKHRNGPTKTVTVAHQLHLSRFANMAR
Nature of the assay: DnaB intein splicing inhibitors, dose response, biochemical, cell-free fluorescence (AID 449749). It is filed as functional.

Assay [5] addresses DNA damage-inducible transcript 3 protein (Mus musculus, UniProt P35639). The format is functional, Cricetulus griseus.
The nature of assay [6]: THP-1 cell cytotoxicity, dose response, cytotoxicity control for Vif-APOBEC3G degradation inhibitor project, THP-1 cells (AID 1117359). The format is functional. The following applies: Human immunodeficiency virus 1, THP-1.
Another assay addresses T2, X-box-binding protein 1 (Homo sapiens, UniProt P17861).
T2 sequence (P17861 whole entry): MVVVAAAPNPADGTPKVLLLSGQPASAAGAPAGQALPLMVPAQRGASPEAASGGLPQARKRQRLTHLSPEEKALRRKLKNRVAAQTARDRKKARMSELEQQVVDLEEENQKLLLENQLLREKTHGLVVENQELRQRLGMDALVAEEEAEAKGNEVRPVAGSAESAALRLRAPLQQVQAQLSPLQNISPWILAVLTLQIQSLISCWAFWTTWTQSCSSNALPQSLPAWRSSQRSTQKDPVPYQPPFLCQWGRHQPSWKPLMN
It is filed as functional, Cricetulus griseus.

The test system of assay [7] is BJ. Nature of the assay: cells. It is filed as functional, cell-based. The following applies: Homo sapiens.
In another assay the target is Large T antigen (Simian virus 40, UniProt P03070). It is filed as functional, Betapolyomavirus macacae.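 Further: Confirmatory-stage PubChem screen for compounds that inhibit SV40 T antigen.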
Assay [8] can be described thus: cytotoxicity toward NIH3T3 fibroblasts, dose response, counter-screen, cell-based, ATP luminescence, mouse fibroblasts (AID 2010).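 Further: cells exposed to compound for about 90 hours before reading.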 The format is functional.
For assay [9], the target named is T3, Heat shock factor protein 1 (Mus musculus, UniProt P38532).
T3 sequence (P38532 whole entry): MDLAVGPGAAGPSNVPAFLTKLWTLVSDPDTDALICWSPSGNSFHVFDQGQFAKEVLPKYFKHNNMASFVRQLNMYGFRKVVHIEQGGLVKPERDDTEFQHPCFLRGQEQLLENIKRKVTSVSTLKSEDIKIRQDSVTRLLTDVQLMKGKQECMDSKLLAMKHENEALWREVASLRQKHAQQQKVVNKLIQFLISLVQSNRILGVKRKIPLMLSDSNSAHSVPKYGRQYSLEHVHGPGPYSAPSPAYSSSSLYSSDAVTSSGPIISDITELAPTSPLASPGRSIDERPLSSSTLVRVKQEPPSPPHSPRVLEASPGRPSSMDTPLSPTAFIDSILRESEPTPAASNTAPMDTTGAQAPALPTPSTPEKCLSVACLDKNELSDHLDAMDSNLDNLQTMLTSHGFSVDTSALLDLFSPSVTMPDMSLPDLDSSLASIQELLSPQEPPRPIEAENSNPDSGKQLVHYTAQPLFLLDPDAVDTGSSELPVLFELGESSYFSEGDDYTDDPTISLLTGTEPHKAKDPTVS
Nature of the assay: HSF1 potentiators in luciferase reporter cells, confirmation, cell-based, NIH3T3, luminescence, dose retest (AID 435004).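 Further: stress induced by proteasome inhibitor MG132 added 30 min after compound; luciferase reporter driven by HSF1 response element in NIH3T3 cells; actives raise luminescence as potentiators of the MG132 stress response.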 The format is functional. (In general: Reporter assays use an easily measured gene product as a stand-in for the process of interest.)

Assay [10] in a line: growth suppression of PTEN-null colon cells, dose response, cell-based, HCT116 PTEN knockout (AID 1047).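 Further: HCT116 colon tumor cells with PTEN knocked out; cells exposed to compound for 60 hours before readout; potency for loss of cell viability measured by luminescence.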 It is filed as functional.
A short description of assay [11]: C. albicans growth with fluconazole, confirmation, fluorescence, retest (AID 2467). It is filed as functional, cell-based.
Assay [12] can be described thus: cytotoxicity toward DRD oncogenic fibroblasts, dose response, cell-based, non-viral oncogenic, luminescence (AID 1934). It is filed as functional. The following applies: Homo sapiens.
Assay [13] concerns BJ. Nature of the assay: cytotoxicity toward BJ-TERT-LT-ST fibroblasts, dose response, cell-based, RAS-independent, luminescence (AID 1935).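 Further: BJ fibroblasts immortalized with TERT plus LT and ST oncogenes.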 The format is functional. The following applies: Homo sapiens.
The target of a further assay is Fatty acid synthase (Homo sapiens, UniProt P49327). Nature of the assay: FAS thioesterase domain inhibitors, dose response, biochemical, endpoint fluorescence intensity, uHTS hits (AID 624327).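 Further: fluorescence from hydrolysis of an O-methyl fluorescein acyl ester substrate by the enzyme.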 The format is functional.
Assay [14] is described as follows: Fluorescence-based cell-based high throughput dose response assay for inhibitors of the interaction of nucleotide-binding oligomerization domain containing 2 (NOD2) and the receptor-interacting serine-threonine kinase 2 (RIPK2). It is filed as functional. To be noted: Homo sapiens.
Assay [15] deals with HEK293. Briefly: cells. The following applies: Homo sapiens.
Assay [16] concerns BJ. Briefly: cytotoxicity toward BJ-TERT fibroblasts, dose response, cell-based, RAS-independent, luminescence (AID 1933). The format is functional. The following applies: Homo sapiens.
Assay [17] in a line: inhibitors of intracellular T. cruzi replication, confirmation, NIH3T3 host cells, beta-gal luminescence (AID 2044).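 Further: intracellular parasites grown in NIH/3T3 mouse fibroblasts as host cells; luminescent beta-galactosidase reporter signal from transgenic T. cruzi replicating inside host cells; inhibitors lower the luminescence signal.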 It is filed as functional, cell-based.
A further assay addresses Nonstructural protein 1 (Influenza A virus, UniProt Q194T2). The format is functional, Influenza A virus (A/California/07/2009(H1N1)).
Assay [18] has as its system HEK293. Nature of the assay: cells. To be noted: Homo sapiens. The source holds these as a separate data set.
Assay [19] can be described thus: NIH-3T3 fibroblast cytotoxicity, dose response, cytotoxicity control, cell-based, fluorescence, Alamar Blue, secondary assay (AID 2327).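 Further: NIH-3T3 mouse fibroblasts cultured with fluconazole at 8 µg/mL.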 It is filed as functional.
A further assay concerns the target Hexokinase HKDC1 (Homo sapiens, UniProt Q2TB90). Nature of the assay: HKDC1 hexokinase inhibitors, dose response, biochemical, W721R variant (AID 504729). It is filed as functional.
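Wherever Absolute IC50 (XBP1) is given: confirmatory dose-response counter-screen serving a CHOP assay.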

Large T antigen, sequence (P03070 whole entry): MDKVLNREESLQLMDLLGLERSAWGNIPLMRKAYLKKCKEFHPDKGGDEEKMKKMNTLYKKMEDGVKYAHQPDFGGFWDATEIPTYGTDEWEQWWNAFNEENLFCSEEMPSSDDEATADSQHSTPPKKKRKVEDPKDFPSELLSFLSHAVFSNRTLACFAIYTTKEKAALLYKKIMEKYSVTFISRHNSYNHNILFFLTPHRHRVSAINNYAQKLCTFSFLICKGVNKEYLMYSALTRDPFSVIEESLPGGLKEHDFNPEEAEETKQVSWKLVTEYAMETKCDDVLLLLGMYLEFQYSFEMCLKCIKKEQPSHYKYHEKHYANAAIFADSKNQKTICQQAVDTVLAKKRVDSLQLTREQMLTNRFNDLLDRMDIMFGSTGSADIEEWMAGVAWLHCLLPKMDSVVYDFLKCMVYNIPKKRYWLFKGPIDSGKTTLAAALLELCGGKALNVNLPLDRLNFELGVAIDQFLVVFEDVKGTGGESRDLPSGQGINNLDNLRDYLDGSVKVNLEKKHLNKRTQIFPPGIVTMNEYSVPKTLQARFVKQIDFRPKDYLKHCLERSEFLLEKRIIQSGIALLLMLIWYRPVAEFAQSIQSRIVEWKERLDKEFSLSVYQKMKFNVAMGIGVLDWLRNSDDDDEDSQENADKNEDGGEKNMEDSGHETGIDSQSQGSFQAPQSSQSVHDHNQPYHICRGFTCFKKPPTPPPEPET
DNA damage-inducible transcript 3 protein, sequence (P35639 whole entry): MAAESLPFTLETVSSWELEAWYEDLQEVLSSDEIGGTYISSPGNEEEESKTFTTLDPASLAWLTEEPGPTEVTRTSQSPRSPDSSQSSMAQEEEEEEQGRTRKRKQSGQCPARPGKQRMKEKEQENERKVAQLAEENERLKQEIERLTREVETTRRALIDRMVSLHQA
Fatty acid synthase, sequence (P49327 whole entry, the tested form may be a part): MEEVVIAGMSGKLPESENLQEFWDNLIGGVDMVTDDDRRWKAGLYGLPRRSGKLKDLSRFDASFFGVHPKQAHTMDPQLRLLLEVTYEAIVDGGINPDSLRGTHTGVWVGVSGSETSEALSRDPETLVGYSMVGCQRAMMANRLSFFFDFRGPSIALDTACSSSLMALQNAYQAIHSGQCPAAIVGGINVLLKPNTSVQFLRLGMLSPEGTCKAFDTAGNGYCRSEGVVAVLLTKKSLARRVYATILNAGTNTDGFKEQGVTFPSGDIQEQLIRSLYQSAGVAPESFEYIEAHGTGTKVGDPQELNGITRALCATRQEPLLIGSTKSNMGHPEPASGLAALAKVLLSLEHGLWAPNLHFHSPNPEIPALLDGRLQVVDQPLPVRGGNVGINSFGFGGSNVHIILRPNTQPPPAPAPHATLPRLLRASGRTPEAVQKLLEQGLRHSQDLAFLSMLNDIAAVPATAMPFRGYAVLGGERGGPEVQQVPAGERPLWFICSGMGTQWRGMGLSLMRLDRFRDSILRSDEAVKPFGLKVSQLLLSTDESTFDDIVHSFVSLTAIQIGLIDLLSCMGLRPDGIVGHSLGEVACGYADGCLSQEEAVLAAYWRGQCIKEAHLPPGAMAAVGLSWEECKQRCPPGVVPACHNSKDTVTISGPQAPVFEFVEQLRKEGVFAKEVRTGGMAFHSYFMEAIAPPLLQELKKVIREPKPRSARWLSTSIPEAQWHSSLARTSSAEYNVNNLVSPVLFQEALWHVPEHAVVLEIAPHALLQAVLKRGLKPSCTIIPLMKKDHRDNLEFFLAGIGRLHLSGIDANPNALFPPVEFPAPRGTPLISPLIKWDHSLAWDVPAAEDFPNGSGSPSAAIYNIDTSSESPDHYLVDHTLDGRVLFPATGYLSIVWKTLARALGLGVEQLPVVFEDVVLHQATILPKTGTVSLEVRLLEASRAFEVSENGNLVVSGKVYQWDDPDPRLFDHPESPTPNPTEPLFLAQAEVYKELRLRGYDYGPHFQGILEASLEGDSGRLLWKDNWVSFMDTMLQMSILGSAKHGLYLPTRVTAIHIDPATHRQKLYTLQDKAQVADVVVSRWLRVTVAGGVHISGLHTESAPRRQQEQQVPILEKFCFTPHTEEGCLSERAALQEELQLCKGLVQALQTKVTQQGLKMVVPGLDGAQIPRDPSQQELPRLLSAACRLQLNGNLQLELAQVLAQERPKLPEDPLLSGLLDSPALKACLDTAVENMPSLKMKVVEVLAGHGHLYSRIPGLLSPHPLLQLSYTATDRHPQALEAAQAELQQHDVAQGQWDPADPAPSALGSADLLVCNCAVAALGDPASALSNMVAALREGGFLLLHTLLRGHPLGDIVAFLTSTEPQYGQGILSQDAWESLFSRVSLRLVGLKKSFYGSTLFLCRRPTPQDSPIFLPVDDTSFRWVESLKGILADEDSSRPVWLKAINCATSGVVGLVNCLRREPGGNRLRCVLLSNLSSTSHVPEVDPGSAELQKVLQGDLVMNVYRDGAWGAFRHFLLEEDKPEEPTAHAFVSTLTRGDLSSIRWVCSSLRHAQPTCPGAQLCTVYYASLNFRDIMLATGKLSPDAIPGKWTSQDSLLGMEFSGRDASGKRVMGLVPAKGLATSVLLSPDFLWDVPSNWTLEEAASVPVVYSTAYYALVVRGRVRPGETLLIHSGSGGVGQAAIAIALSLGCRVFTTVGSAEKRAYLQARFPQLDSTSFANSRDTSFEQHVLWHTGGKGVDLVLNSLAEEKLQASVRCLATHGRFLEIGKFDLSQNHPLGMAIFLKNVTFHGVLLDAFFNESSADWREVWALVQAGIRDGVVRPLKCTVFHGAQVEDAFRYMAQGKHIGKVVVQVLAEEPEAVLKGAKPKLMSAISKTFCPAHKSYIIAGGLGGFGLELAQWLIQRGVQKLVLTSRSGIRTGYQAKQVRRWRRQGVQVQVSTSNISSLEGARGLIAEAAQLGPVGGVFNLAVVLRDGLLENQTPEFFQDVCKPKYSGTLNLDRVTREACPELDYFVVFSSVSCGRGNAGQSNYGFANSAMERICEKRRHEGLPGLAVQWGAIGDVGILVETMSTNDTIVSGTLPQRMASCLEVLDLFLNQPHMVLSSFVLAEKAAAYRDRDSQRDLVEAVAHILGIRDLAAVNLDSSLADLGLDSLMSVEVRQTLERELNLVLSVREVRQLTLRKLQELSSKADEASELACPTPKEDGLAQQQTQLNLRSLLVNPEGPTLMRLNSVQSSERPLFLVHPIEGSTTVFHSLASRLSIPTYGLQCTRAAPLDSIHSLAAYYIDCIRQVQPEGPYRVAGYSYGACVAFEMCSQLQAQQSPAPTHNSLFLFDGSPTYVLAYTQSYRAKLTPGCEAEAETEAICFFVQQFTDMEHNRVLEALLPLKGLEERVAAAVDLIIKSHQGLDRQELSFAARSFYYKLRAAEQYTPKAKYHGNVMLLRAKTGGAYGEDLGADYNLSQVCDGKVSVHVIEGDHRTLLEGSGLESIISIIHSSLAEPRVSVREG
Kallikrein-7, sequence (P49862 whole entry): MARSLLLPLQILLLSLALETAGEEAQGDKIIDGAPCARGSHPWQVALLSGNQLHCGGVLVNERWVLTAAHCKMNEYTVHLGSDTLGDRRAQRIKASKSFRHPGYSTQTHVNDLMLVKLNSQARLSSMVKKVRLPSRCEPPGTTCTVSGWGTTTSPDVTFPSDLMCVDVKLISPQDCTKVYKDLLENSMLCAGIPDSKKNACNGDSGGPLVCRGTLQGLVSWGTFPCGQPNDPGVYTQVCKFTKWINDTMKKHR
Hexokinase HKDC1, sequence (Q2TB90 whole entry): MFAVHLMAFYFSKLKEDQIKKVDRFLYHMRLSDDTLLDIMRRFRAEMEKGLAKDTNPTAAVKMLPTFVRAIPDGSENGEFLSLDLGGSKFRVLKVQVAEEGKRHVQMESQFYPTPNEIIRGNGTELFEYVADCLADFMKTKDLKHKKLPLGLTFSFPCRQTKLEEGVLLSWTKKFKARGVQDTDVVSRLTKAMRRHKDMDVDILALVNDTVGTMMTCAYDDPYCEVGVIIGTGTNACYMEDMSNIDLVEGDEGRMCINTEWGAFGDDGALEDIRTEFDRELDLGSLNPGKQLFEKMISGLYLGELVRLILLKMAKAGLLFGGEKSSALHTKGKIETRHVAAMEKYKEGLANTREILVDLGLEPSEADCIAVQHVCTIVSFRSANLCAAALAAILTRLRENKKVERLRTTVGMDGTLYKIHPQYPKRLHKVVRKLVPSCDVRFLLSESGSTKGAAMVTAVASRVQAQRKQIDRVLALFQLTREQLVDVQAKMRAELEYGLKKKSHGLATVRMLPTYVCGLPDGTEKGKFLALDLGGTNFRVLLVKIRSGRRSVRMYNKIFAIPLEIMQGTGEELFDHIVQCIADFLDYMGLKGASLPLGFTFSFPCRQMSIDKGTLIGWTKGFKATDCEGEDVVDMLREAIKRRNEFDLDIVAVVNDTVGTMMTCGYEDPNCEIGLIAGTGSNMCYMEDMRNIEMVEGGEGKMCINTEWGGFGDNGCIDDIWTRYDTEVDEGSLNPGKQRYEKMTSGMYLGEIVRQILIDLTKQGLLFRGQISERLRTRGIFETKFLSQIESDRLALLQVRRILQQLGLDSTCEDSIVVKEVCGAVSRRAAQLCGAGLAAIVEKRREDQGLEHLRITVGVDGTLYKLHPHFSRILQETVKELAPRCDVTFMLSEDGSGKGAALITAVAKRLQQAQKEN
Nonstructural protein 1, sequence (Q194T2 whole entry): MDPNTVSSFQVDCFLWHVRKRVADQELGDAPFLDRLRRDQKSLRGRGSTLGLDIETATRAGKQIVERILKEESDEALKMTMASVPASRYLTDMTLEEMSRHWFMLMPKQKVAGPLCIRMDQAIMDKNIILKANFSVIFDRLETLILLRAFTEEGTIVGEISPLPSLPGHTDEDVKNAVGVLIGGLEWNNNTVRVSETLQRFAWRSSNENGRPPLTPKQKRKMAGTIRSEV

For the compound `CCC(COC)Oc1cc(NCc2ccccc2)c2ncn(C(C)C)c2c1` (centres undefined), the figures for the AC50 in [1], in assay [2] and in [3] were 30.4 µM (active), 33.5 µM (active) and 26.1 µM (active), respectively.

For `O=c1[nH]c(N2CCOCC2)cc2ccccc12`, the EC50 at Kallikrein-7 was > 69.6 µM (inactive). The AC50 in assay [4] was > 120 µM (inactive).

Consider `O=[N+]([O-])c1ccc(Sc2nc3ccccc3o2)c([N+](=O)[O-])c1`, for which the “Absolute IC50 (CHOP)” value in [5] is 10 µM. In assay [6], the CC50 is 2.46 µM (active). Further, at X-box-binding protein 1, the “Absolute IC50 (XBP1)” value was determined as 10 µM. For the same compound, the EC50 in the assay on BJ [7] was 8.14 µM (active); in assay [8] it was 1.81 µM (active); in assay [9] it was 11.7 µM (active); in assay [10], 6.88 µM (active); in assay [11] it was 1.37 µM (active); in assay [12], 4.54 µM (inconclusive). The EC50 with BJ [13] was 5.55 µM (active); in the assay with HEK293 [15], > 59.6 µM (inactive); with BJ [16] it was 3.27 µM (active); in assay [17] it was 1.27 µM (active); in the assay on HEK293 [18], > 59.6 µM (inactive); in assay [19], 5.82 µM (inconclusive). Moreover, the concentration for half-maximal inhibition (IC50) at Large T antigen was 84.9 µM (active); at Fatty acid synthase, 15.8 µM (active); in assay [14], 1.92 µM (active); at Nonstructural protein 1 it was 34.2 µM (active); at Hexokinase HKDC1, 37.4 µM (inactive). The AC50 in assay [1] is 8.49 µM (active); in assay [2], 28.8 µM (active); in assay [3], 6.63 µM (active); in assay [4], 2.05 µM (active).
